By IC50 is commonly meant the point on the concentration scale where inhibition reaches its midpoint. Low values mean greater potency in that assay, high ones weaker potency in that assay.

Calls of active or inactive are those of the source. The rule behind the calls is not given here.

Holding throughout (type): functional, cell-based
One experiment relates to MCF7. The experiment can be described thus: Growth inhibition of human MCF7 cells after 48 hrs by MTS assay. (In general: Tetrazolium assays rely on reduction of a dye to a coloured formazan, in cell work by metabolically active cells.)
The subject of another experiment is SMMC-7721. Nature of the experiment: Growth inhibition of human SMMC7721 cells after 48 hrs by MTS assay.
Another experiment deals with SW480. Nature of the experiment: Growth inhibition of human SW480 cells after 48 hrs by MTS assay.
Another experiment concerns HL-60. Nature of the experiment: Growth inhibition of human HL60 cells after 48 hrs by MTS assay.
Another experiment deals with A549. The experiment can be described thus: Growth inhibition of human A549 cells after 48 hrs by MTS assay.

In the experiment with MCF7 (MCF7, 48 h), `C=C1[C@@H]2CC(=O)c3cc(C(C)C)c(O)cc3[C@@]2(C)CC(=O)[C@]12CCC1=C(C2)[C@@H]2CC(=O)c3cc(C(C)C)c(O)cc3[C@@]2(C)C[C@@H]1O` registered an IC50 of 9000 nM. Moreover, the “growth inhibition (GI)” value with SMMC-7721, with SW480, in the experiment with HL-60 and in the experiment on A549 was “inactive” throughout.
On to `C=C1[C@@H]2CC(=O)c3cc(C(C)C)c(O)cc3[C@@]2(C)CC(=O)[C@]12CCC1=C(C2)C2=CC(=O)c3cc(C(C)C)c(O)cc3[C@@]2(C)C[C@@H]1O`, for which the “growth inhibition (GI)” value with MCF7, in the experiment with SMMC-7721, with SW480, in the experiment on HL-60 and with A549 was “inactive” each time.
On to `CC(=O)O[C@H]1C(=O)[C@@]2(C)[C@H]([C@H](OC(=O)c3ccccc3)[C@]3(O)C[C@H](OC(=O)[C@H](O)[C@@H](NC(=O)c4ccccc4)c4ccccc4)C(C)=C1C3(C)C)[C@]1(OC(C)=O)CO[C@@H]1C[C@@H]2O` [PACLITAXEL], for which the half-maximal inhibitory concentration (IC50) in the experiment with SMMC-7721 (SMMC-7721, 48 h) is less than 8 nM; in the experiment with SW480 (SW480, 48 h), less than 8 nM; with HL-60 (HL-60, 48 h) it was less than 8 nM.
For `CC(C)c1cc2c(cc1O)[C@@]1(C)CC[C@](C)(O)[C@@](O)(CO)[C@@H]1CC2=O`, the “growth inhibition (GI)” value in the experiment on MCF7, in the experiment with SMMC-7721, in the experiment on SW480, in the experiment on HL-60 and with A549 was “inactive” each time.

Values taken from ChEMBL document CHEMBL4138293, “Modified Abietane Diterpenoids from Whole Plants of Selaginella moellendorffii” (J Nat Prod, 2018).
